In patent US20260364030A1, “NOVEL SELECTIVE INHIBITORS OF LYSYL OXIDASES” (Syntara Limited, priority 2022, published 2026):
Read-outs that look alike come from different tables or passages of the source.

Key:
[1] = system: breast cancer model (MMTV-PyMT); conditions: cited from earlier work
[2] = biological target: T1, LOXL2 (Homo sapiens, UniProt Q9Y4K0); assay: LOXL2 inhibition, Amplex Red oxidation assay; assay type: biochemical; conditions: 2 h incubation with enzyme at 37 °C; read-out: Human LOXL2 Activity IC50
T1 sequence (Q9Y4K0 26-774): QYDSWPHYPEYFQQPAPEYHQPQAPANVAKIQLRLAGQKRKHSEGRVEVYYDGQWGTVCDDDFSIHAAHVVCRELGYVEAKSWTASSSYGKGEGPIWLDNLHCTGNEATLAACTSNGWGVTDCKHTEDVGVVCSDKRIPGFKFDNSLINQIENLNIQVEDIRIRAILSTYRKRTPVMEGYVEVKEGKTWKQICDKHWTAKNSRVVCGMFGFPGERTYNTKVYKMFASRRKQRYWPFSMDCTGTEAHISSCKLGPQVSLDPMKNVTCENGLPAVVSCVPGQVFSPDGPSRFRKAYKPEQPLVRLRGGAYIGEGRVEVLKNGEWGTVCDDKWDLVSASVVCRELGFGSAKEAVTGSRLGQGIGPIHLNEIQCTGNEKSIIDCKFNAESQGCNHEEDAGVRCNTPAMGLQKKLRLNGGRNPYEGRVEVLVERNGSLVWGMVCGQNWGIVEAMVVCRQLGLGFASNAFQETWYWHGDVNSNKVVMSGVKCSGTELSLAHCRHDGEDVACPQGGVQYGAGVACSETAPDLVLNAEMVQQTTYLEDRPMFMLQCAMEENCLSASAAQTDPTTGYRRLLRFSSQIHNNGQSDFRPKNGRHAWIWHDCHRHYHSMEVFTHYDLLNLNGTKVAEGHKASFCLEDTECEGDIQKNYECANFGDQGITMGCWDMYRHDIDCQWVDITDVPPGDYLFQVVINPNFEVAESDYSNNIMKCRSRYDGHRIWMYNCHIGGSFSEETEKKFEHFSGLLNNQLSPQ
Experimental: (§1) LOX and LOXL protein family members can be acquired as recombinant active proteins from commercial sources, or extracted from animal tissues like bovine aorta, tendons, pig skin; or prepared from cell cultures. The inhibitory effects of the compounds of the present invention were tested against the given LOX or LOXL preparation using a method based on the detection of hydrogen peroxide with an Amplex Red oxidation assay [Zhou et al, 1997]. The assay was developed using either 384 or 96 well format. Briefly, in a standard black, clear bottom 384 well plate assay 25 µL of a dilution of any of the isoenzymes and orthologues in 1.2 M urea, 50 mM sodium borate buffer (pH 8.2) were added into each well in the presence of […] and 0.5 mM pargyline (to inhibit SSAO and MAO-B and MAO-A, respectively; not necessary if the enzyme is from a recombinant or purified form). […] of a reaction mixture containing twice the KM concentration of putrescine (Sigma Aldrich, e.g. 20 mM for LOX and LOXL1 or 10 mM for LOXL2 and 4 mM for LOXL3 and LOXL4), 120 µM Amplex Red (Thermo Fisher Scientific) and 1.5 U/mL horseradish peroxidase (Sigma Aldrich) prepared in 1.2 M urea, 50 mM sodium borate buffer (pH 8.2) were then added to the corresponding wells. The above volumes were doubled in the case of 96 wells plate. The fluorescence (RFU) was read every 2.5 min for 30 min at 37 °C, excitation 544 nm and emission 590 (Optima; BMG labtech). The slope/min of the kinetics for each well was calculated using MARS data analysis software (BMG labtech) and this value was used to deduce the IC50 value (Dotmatics). The ability of the inventive compounds to inhibit the amine oxidase activity of LOX and other family members is shown in Table 5.

[3] = biological target: T2, Bovine LOX (Bos taurus, UniProt P33072); assay: LOX inhibition, hydrogen peroxide Amplex Red oxidation assay; assay type: biochemical; conditions: 2 h incubation with enzyme at 37 °C
T2 sequence (P33072 170-418): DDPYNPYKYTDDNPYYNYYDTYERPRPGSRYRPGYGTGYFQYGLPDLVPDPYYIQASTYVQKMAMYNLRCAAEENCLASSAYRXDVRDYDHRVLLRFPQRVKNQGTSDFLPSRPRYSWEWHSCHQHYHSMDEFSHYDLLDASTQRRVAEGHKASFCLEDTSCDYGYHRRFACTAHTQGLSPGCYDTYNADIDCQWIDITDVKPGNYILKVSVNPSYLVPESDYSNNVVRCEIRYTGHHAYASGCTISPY
Experimental: as §1

[4] = system: massive, pedunculated keloids; conditions: cited from earlier work

Compound	IC50 [2]	IC50 [3]	also measured
CS(=O)(=O)c1cc(-c2ccccc2)cc(S(=O)(=O)c2ccc(CN)s2)c1 [CCT365623]			Metastasis and survival [1]: reduce metastasis and increase survival
NC/C(=C\F)CS(=O)(=O)c1cccc2c1OCCO2 [Compound 33, (E)-2-(((2,3-dihydrobenzo[b][1,4]dioxin-5-yl)sulfonyl)methyl)-3-fluoroprop-2-en-1-amine]	< 10 µM	< 10 µM	
CS(=O)(=O)c1cccc(Oc2ccccc2S(=O)(=O)C/C(=C/F)CN)c1 [Compound 35, (E)-3-fluoro-2-(((2-(3-(methylsulfonyl)phenoxy)phenyl)sulfonyl)methyl)prop-2-en-1-amine]	< 2 µM	< 5 µM	
NC/C(=C\F)CS(=O)(=O)c1cccc(CN2CCCCCC2=O)c1 [Compound 36, (E)-1-(3-((2-(aminomethyl)-3-fluoroallyl)sulfonyl)benzyl)azepan-2-one]	< 5 µM	< 10 µM	
NC/C(=C/F)CS(=O)(=O)c1ccccc1 [Compound 37, (Z)-3-fluoro-2-((phenylsulfonyl)methyl)prop-2-en-1-amine]	< 2 µM	< 2 µM	
COc1cc2c(c(OC)c1OC)-c1ccc(OC)c(=O)cc1[C@@H](NC(C)=O)CC2 [colchicine]			Effect on surface scarring ([4]; human, in vivo): measurable beneficial effect on surface scarring
CC(C)(S)[C@@H](N)C(=O)O [penicillamine]			Effect on surface scarring ([4]; BAPN or penicillamine, and colchicine, following excision of keloid and grafting): measurable beneficial effect on surface scarring
